# Columns and labels:
# Type in all cases: in vivo
# transplanted rice = assay: Test Example 1: preemergent weed treatment in the submerged state, effect on crop; a: transplanted rice; details: treatment dosage 252 g/ha
# In short: (§1)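 Emulsion diluted with water to the specified per-hectare dosage is applied onto flood water (4 cm) over alluvial soil on the sowing day, with barnyard grass, bulrush and pondweed seeded and rice (2.5-leaf) transplanted; plants grow at 25–30 °C and are rated at 3 weeks.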
# wheat [1] = assay: Test Example 3: soil treatment, effect on crop; e: wheat; details: treatment dosage 315 g/ha
# In short: (§2)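 Crop and weed responses were judged three weeks after a uniform surface spray of the water-diluted emulsion at the given g/ha rate. Seeds sat beneath about 1.5 cm of sterilized diluvial soil, and boxes stood in a greenhouse at 25 to 30° C.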
# barnyard grass [2] = assay: Test Example 1: weedkilling efficacy, preemergent weed treatment in the submerged state; A: barnyard grass; details: treatment dosage 252 g/ha
# In short: as §1
# crabgrass [3] = assay: Test Example 4: weedkilling efficacy by foliar treatment; D: crabgrass; details: treatment dosage 315 g/ha
# In short: (§3)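 Seeds are spot-sown into sterilized diluvial soil and covered with about 1.5 cm of soil. After 14 days' greenhouse growth at 25 to 30° C, plants are sprayed on stems and leaves with diluted emulsion at the stated g/ha rate, then scored at 3 weeks.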
# wheat [4] = assay: Test Example 4: foliar treatment, effect on crop; e: wheat; details: treatment dosage 315 g/ha
# In short: as §3
# bulrush [5] = assay: Test Example 1: weedkilling efficacy, preemergent weed treatment in the submerged state; B: bulrush; details: treatment dosage 252 g/ha
# In short: as §1
# beet [6] = assay: Test Example 4: foliar treatment, effect on crop; f: beet; details: treatment dosage 315 g/ha
# In short: as §3
# redroot pigweed [7] = assay: Test Example 3: weedkilling efficacy through soil treatment; L: redroot pigweed; details: treatment dosage 315 g/ha
# In short: as §2
# Indian mallow [8] = assay: Test Example 3: weedkilling efficacy through soil treatment; K: Indian mallow; details: treatment dosage 315 g/ha
# In short: as §2
# beet [9] = assay: Test Example 3: soil treatment, effect on crop; f: beet; details: treatment dosage 315 g/ha
# In short: as §2
# black-grass [10] = assay: Test Example 4: weedkilling efficacy by foliar treatment; H: black-grass; details: treatment dosage 315 g/ha
# In short: as §3
# chickweed [11] = assay: Test Example 4: weedkilling efficacy by foliar treatment; N: chickweed; details: treatment dosage 315 g/ha
# In short: as §3
# soybean [12] = assay: Test Example 3: soil treatment, effect on crop; d: soybean; details: treatment dosage 315 g/ha
# In short: as §2
# corn [13] = assay: Test Example 4: foliar treatment, effect on crop; c: corn; details: treatment dosage 315 g/ha
# In short: as §3
# soybean [14] = assay: Test Example 4: foliar treatment, effect on crop; d: soybean; details: treatment dosage 315 g/ha
# In short: as §3
# birds-eye speedwell [15] = assay: Test Example 4: weedkilling efficacy by foliar treatment; p: birds-eye speedwell; details: treatment dosage 315 g/ha
# In short: as §3
# oval-leafed pondweed [16] = assay: Test Example 1: weedkilling efficacy, preemergent weed treatment in the submerged state; C: oval-leafed pondweed; details: treatment dosage 252 g/ha
# In short: as §1
# oval-leafed pondweed [17] = assay: Test Example 2: weedkilling efficacy, growth period weed treatment in the submerged state; C: oval-leafed pondweed; details: treatment dosage 252 g/ha
# In short: (§4)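 First, alluvial soil in pots is flooded to 4 cm and mixed seed is sown. Next, plants grow in a greenhouse at 25 to 30° C until the 1-2 leaf stage. Then diluted emulsion is applied onto the water surface at the given g/ha rate, and injury is assessed after 3 weeks.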
# fig-leafed goosefoot [18] = assay: Test Example 3: weedkilling efficacy through soil treatment; M: fig-leafed goosefoot; details: treatment dosage 315 g/ha
# In short: as §2
# Italian ryegrass [19] = assay: Test Example 4: weedkilling efficacy by foliar treatment; I: Italian ryegrass; details: treatment dosage 315 g/ha
# In short: as §3
# crabgrass [20] = assay: Test Example 3: weedkilling efficacy through soil treatment; D: crabgrass; details: treatment dosage 315 g/ha
# In short: as §2
# redroot pigweed [21] = assay: Test Example 4: weedkilling efficacy by foliar treatment; L: redroot pigweed; details: treatment dosage 315 g/ha
# In short: as §3
# fig-leafed goosefoot [22] = assay: Test Example 4: weedkilling efficacy by foliar treatment; M: fig-leafed goosefoot; details: treatment dosage 315 g/ha
# In short: as §3
# Indian mallow [23] = assay: Test Example 4: weedkilling efficacy by foliar treatment; K: Indian mallow; details: treatment dosage 315 g/ha
# In short: as §3
# directly sown rice [24] = assay: Test Example 3: soil treatment, effect on crop; b: directly sown rice; details: treatment dosage 315 g/ha
# In short: as §2
# chickweed [25] = assay: Test Example 3: weedkilling efficacy through soil treatment; N: chickweed; details: treatment dosage 315 g/ha
# In short: as §2
# bulrush [26] = assay: Test Example 2: weedkilling efficacy, growth period weed treatment in the submerged state; B: bulrush; details: treatment dosage 252 g/ha
# In short: as §4
# catchweed = assay: Test Example 4: weedkilling efficacy by foliar treatment; O: catchweed; details: treatment dosage 315 g/ha
# In short: as §3
# green foxtail [27] = assay: Test Example 4: weedkilling efficacy by foliar treatment; E: green foxtail; details: treatment dosage 315 g/ha
# In short: as §3
# birds-eye speedwell [28] = assay: Test Example 3: weedkilling efficacy through soil treatment; p: birds-eye speedwell; details: treatment dosage 315 g/ha
# In short: as §2
# directly sown rice [29] = assay: Test Example 4: foliar treatment, effect on crop; b: directly sown rice; details: treatment dosage 315 g/ha
# In short: as §3
# green foxtail [30] = assay: Test Example 3: weedkilling efficacy through soil treatment; E: green foxtail; details: treatment dosage 315 g/ha
# In short: as §2
# barnyard grass [31] = assay: Test Example 2: weedkilling efficacy, growth period weed treatment in the submerged state; A: barnyard grass; details: treatment dosage 252 g/ha
# In short: as §4
# black-grass [32] = assay: Test Example 3: weedkilling efficacy through soil treatment; H: black-grass; details: treatment dosage 315 g/ha
# In short: as §2
# corn [33] = assay: Test Example 3: soil treatment, effect on crop; c: corn; details: treatment dosage 315 g/ha
# In short: as §2
# Italian ryegrass [34] = assay: Test Example 3: weedkilling efficacy through soil treatment; I: Italian ryegrass; details: treatment dosage 315 g/ha
# In short: as §2
smiles,measurement,setting,value
CC1=C(c2ccccc2)C(=O)N(C(C)(C)C(=O)Nc2cccc(Cl)n2)CO1 [B-2-29],a (transplanted rice) effect on crop grade,transplanted rice,0 (weed kill ratio 5% or less (practically no effect))
same,e (wheat) effect on crop grade,wheat [1],"5 (weed kill ratio 90% or more, (practically complete withering))"
same,A (barnyard grass) weedkilling efficacy grade,barnyard grass [2],"5 (weed kill ratio 90% or more, (practically complete withering))"
same,D (crabgrass) weedkilling efficacy grade,crabgrass [3],"5 (weed kill ratio 90% or more, (practically complete withering))"
same,e (wheat) effect on crop grade,wheat [4],"5 (weed kill ratio 90% or more, (practically complete withering))"
same,B (bulrush) weedkilling efficacy grade,bulrush [5],"5 (weed kill ratio 90% or more, (practically complete withering))"
same,f (beet) effect on crop grade,beet [6],"4 (weed kill ratio 70% or more, less than 90%)"
same,L (redroot pigweed) weedkilling efficacy grade,redroot pigweed [7],"4 (weed kill ratio 70% or more, less than 90%)"
same,K (Indian mallow) weedkilling efficacy grade,Indian mallow [8],"4 (weed kill ratio 70% or more, less than 90%)"
same,f (beet) effect on crop grade,beet [9],"5 (weed kill ratio 90% or more, (practically complete withering))"
same,H (black-grass) weedkilling efficacy grade,black-grass [10],"5 (weed kill ratio 90% or more, (practically complete withering))"
same,N (chickweed) weedkilling efficacy grade,chickweed [11],"5 (weed kill ratio 90% or more, (practically complete withering))"
same,d (soybean) effect on crop grade,soybean [12],"3 (weed kill ratio 40% or more, less than 70%)"
same,c (corn) effect on crop grade,corn [13],"4 (weed kill ratio 70% or more, less than 90%)"
same,d (soybean) effect on crop grade,soybean [14],"5 (weed kill ratio 90% or more, (practically complete withering))"
same,P (birds-eye speedwell) weedkilling efficacy grade,birds-eye speedwell [15],"4 (weed kill ratio 70% or more, less than 90%)"
same,C (oval-leafed pondweed) weedkilling efficacy grade,oval-leafed pondweed [16],"5 (weed kill ratio 90% or more, (practically complete withering))"
same,C (oval-leafed pondweed) weedkilling efficacy grade,oval-leafed pondweed [17],"5 (weed kill ratio 90% or more, (practically complete withering))"
same,M (fig-leafed goosefoot) weedkilling efficacy grade,fig-leafed goosefoot [18],"5 (weed kill ratio 90% or more, (practically complete withering))"
same,I (Italian ryegrass) weedkilling efficacy grade,Italian ryegrass [19],"5 (weed kill ratio 90% or more, (practically complete withering))"
same,D (crabgrass) weedkilling efficacy grade,crabgrass [20],"5 (weed kill ratio 90% or more, (practically complete withering))"
same,L (redroot pigweed) weedkilling efficacy grade,redroot pigweed [21],"5 (weed kill ratio 90% or more, (practically complete withering))"
same,M (fig-leafed goosefoot) weedkilling efficacy grade,fig-leafed goosefoot [22],"4 (weed kill ratio 70% or more, less than 90%)"
same,K (Indian mallow) weedkilling efficacy grade,Indian mallow [23],"5 (weed kill ratio 90% or more, (practically complete withering))"
same,b (directly sown rice) effect on crop grade,directly sown rice [24],"5 (weed kill ratio 90% or more, (practically complete withering))"
same,N (chickweed) weedkilling efficacy grade,chickweed [25],"5 (weed kill ratio 90% or more, (practically complete withering))"
same,B (bulrush) weedkilling efficacy grade,bulrush [26],"5 (weed kill ratio 90% or more, (practically complete withering))"
same,O (catchweed) weedkilling efficacy grade,catchweed,"4 (weed kill ratio 70% or more, less than 90%)"
same,E (green foxtail) weedkilling efficacy grade,green foxtail [27],"5 (weed kill ratio 90% or more, (practically complete withering))"
same,P (birds-eye speedwell) weedkilling efficacy grade,birds-eye speedwell [28],"5 (weed kill ratio 90% or more, (practically complete withering))"
same,b (directly sown rice) effect on crop grade,directly sown rice [29],"5 (weed kill ratio 90% or more, (practically complete withering))"
same,E (green foxtail) weedkilling efficacy grade,green foxtail [30],"5 (weed kill ratio 90% or more, (practically complete withering))"
same,A (barnyard grass) weedkilling efficacy grade,barnyard grass [31],"5 (weed kill ratio 90% or more, (practically complete withering))"
same,H (black-grass) weedkilling efficacy grade,black-grass [32],"5 (weed kill ratio 90% or more, (practically complete withering))"
same,c (corn) effect on crop grade,corn [33],0 (weed kill ratio 5% or less (practically no effect))
same,I (Italian ryegrass) weedkilling efficacy grade,Italian ryegrass [34],"5 (weed kill ratio 90% or more, (practically complete withering))"
CC1=C(c2ccc(Cl)s2)C(=O)N(C(C)(C)C(=O)Nc2cccc(Cl)n2)CO1 [B-2-02],a (transplanted rice) effect on crop grade,transplanted rice,0 (weed kill ratio 5% or less (practically no effect))
same,e (wheat) effect on crop grade,wheat [1],"3 (weed kill ratio 40% or more, less than 70%)"
same,A (barnyard grass) weedkilling efficacy grade,barnyard grass [2],"5 (weed kill ratio 90% or more, (practically complete withering))"
same,D (crabgrass) weedkilling efficacy grade,crabgrass [3],"4 (weed kill ratio 70% or more, less than 90%)"
same,e (wheat) effect on crop grade,wheat [4],0 (weed kill ratio 5% or less (practically no effect))
same,B (bulrush) weedkilling efficacy grade,bulrush [5],"5 (weed kill ratio 90% or more, (practically complete withering))"
same,f (beet) effect on crop grade,beet [6],"3 (weed kill ratio 40% or more, less than 70%)"
same,L (redroot pigweed) weedkilling efficacy grade,redroot pigweed [7],"3 (weed kill ratio 40% or more, less than 70%)"
same,K (Indian mallow) weedkilling efficacy grade,Indian mallow [8],"3 (weed kill ratio 40% or more, less than 70%)"
same,f (beet) effect on crop grade,beet [9],0 (weed kill ratio 5% or less (practically no effect))
same,H (black-grass) weedkilling efficacy grade,black-grass [10],"4 (weed kill ratio 70% or more, less than 90%)"
same,N (chickweed) weedkilling efficacy grade,chickweed [11],0 (weed kill ratio 5% or less (practically no effect))
same,d (soybean) effect on crop grade,soybean [12],0 (weed kill ratio 5% or less (practically no effect))
same,c (corn) effect on crop grade,corn [13],0 (weed kill ratio 5% or less (practically no effect))
same,d (soybean) effect on crop grade,soybean [14],0 (weed kill ratio 5% or less (practically no effect))
same,P (birds-eye speedwell) weedkilling efficacy grade,birds-eye speedwell [15],"1 (weed kill ratio 5% or more, less than 20%)"
same,C (oval-leafed pondweed) weedkilling efficacy grade,oval-leafed pondweed [16],"5 (weed kill ratio 90% or more, (practically complete withering))"
same,C (oval-leafed pondweed) weedkilling efficacy grade,oval-leafed pondweed [17],"5 (weed kill ratio 90% or more, (practically complete withering))"
same,M (fig-leafed goosefoot) weedkilling efficacy grade,fig-leafed goosefoot [18],0 (weed kill ratio 5% or less (practically no effect))
same,I (Italian ryegrass) weedkilling efficacy grade,Italian ryegrass [19],"3 (weed kill ratio 40% or more, less than 70%)"
same,D (crabgrass) weedkilling efficacy grade,crabgrass [20],"5 (weed kill ratio 90% or more, (practically complete withering))"
same,L (redroot pigweed) weedkilling efficacy grade,redroot pigweed [21],"4 (weed kill ratio 70% or more, less than 90%)"
same,M (fig-leafed goosefoot) weedkilling efficacy grade,fig-leafed goosefoot [22],"3 (weed kill ratio 40% or more, less than 70%)"
same,K (Indian mallow) weedkilling efficacy grade,Indian mallow [23],0 (weed kill ratio 5% or less (practically no effect))
same,b (directly sown rice) effect on crop grade,directly sown rice [24],"2 (weed kill ratio 20% or more, less than 40%)"
same,N (chickweed) weedkilling efficacy grade,chickweed [25],"3 (weed kill ratio 40% or more, less than 70%)"
same,B (bulrush) weedkilling efficacy grade,bulrush [26],"5 (weed kill ratio 90% or more, (practically complete withering))"
same,O (catchweed) weedkilling efficacy grade,catchweed,0 (weed kill ratio 5% or less (practically no effect))
same,E (green foxtail) weedkilling efficacy grade,green foxtail [27],"3 (weed kill ratio 40% or more, less than 70%)"
same,P (birds-eye speedwell) weedkilling efficacy grade,birds-eye speedwell [28],"2 (weed kill ratio 20% or more, less than 40%)"
same,b (directly sown rice) effect on crop grade,directly sown rice [29],"4 (weed kill ratio 70% or more, less than 90%)"
same,E (green foxtail) weedkilling efficacy grade,green foxtail [30],"3 (weed kill ratio 40% or more, less than 70%)"
same,A (barnyard grass) weedkilling efficacy grade,barnyard grass [31],"5 (weed kill ratio 90% or more, (practically complete withering))"
same,H (black-grass) weedkilling efficacy grade,black-grass [32],"5 (weed kill ratio 90% or more, (practically complete withering))"
same,c (corn) effect on crop grade,corn [33],0 (weed kill ratio 5% or less (practically no effect))
same,I (Italian ryegrass) weedkilling efficacy grade,Italian ryegrass [34],"5 (weed kill ratio 90% or more, (practically complete withering))"

# Reference: US9738634B2, “Heterocyclic amide compound and herbicide” (SYNGENTA PARTICIPATIONS AG, priority 2013, dated 2017)
